The record followed here is ChEMBL document CHEMBL2413016, “Synthesis and in vivo evaluation of [(18)F]2-(4-(4-(2-(2-fluoroethoxy)phenyl)piperazin-1-yl)butyl)-4-methyl-1,2,4-triazine-3,5(2H,4H)-dione ([(18)F]FECUMI-101) as an imaging probe for 5-HT1A receptor agonist in nonhuman primates” (Bioorg Med Chem, 2013).

In assay [1] the target is 5-hydroxytryptamine receptor 1A (Homo sapiens) (UniProt P08908). The assay can be described thus: Partial agonist activity at human 5HT1A receptor expressed in CHO cells assessed as increase in [35S]GTPgammaS binding relative to serotonin. In kind it is functional, cell-based. (In general: GTPγS resists hydrolysis and so accumulates on activated G proteins.)
For assay [2], the target named is T1, 5-hydroxytryptamine receptor 1A (Homo sapiens, UniProt P08908).
T1 sequence (P08908 whole entry): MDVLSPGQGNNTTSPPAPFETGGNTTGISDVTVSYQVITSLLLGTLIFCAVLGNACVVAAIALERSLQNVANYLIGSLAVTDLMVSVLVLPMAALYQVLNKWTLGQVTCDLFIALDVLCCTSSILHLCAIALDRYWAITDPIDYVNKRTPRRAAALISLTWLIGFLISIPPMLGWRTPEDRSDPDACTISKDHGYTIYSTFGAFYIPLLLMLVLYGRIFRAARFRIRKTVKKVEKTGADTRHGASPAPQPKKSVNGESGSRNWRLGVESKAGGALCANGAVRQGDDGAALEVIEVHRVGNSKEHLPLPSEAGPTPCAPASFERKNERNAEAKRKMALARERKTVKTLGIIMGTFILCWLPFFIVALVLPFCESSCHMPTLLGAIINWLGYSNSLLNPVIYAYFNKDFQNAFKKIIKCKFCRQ
The assay can be described thus: Partial agonist activity at human 5HT1A receptor expressed in CHO cells assessed as increase in [35S]GTPgammaS binding. In kind it is functional, cell-based.

The target of assay [3] is Sigma non-opioid intracellular receptor 1 (Homo sapiens, UniProt Q99720). The assay can be described thus: Binding affinity to sigma 1 receptor (unknown origin).
Chain of Sigma non-opioid intracellular receptor 1 (Q99720 whole entry): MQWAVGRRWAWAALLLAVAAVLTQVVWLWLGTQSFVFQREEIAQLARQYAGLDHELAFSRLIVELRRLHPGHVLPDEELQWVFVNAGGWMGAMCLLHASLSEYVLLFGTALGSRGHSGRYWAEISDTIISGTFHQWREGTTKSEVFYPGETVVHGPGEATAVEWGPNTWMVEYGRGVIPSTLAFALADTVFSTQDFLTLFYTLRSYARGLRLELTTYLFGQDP
Assay [4] is described as follows: Binding affinity to sigma 2 receptor (unknown origin). Details: species or system Homo sapiens.
A further assay addresses Histamine H2 receptor (Homo sapiens, UniProt P25021). Nature of the assay: Binding affinity to histamine H2 receptor (unknown origin).
In another assay the target is Histamine H1 receptor (Homo sapiens, UniProt P35367). Nature of the assay: Binding affinity to histamine H1 receptor (unknown origin).
Chain of Histamine H1 receptor (P35367 whole entry): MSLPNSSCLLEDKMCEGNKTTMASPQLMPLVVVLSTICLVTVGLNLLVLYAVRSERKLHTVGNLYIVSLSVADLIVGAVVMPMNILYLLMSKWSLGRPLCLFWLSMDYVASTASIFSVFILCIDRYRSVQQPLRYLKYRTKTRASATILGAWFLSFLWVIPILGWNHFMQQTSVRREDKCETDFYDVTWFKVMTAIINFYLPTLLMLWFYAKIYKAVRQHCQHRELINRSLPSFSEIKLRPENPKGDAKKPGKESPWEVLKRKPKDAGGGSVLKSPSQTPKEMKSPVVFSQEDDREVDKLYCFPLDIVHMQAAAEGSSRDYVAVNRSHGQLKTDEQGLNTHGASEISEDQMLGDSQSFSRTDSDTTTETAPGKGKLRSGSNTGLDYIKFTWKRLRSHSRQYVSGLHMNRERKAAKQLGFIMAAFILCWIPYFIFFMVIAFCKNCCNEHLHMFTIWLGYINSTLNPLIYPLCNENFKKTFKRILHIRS
The target in another assay is D(4) dopamine receptor (Homo sapiens, UniProt P21917). The assay can be described thus: Binding affinity to dopamine 4 receptor (unknown origin).
The next assay deals with D(3) dopamine receptor (Homo sapiens, UniProt P35462). The assay can be described thus: Binding affinity to dopamine 3 receptor (unknown origin).
For the next assay, the target named is D(2) dopamine receptor (Homo sapiens, UniProt P14416). Nature of the assay: Binding affinity to dopamine 2 receptor (unknown origin).
Chain of D(2) dopamine receptor (P14416 whole entry): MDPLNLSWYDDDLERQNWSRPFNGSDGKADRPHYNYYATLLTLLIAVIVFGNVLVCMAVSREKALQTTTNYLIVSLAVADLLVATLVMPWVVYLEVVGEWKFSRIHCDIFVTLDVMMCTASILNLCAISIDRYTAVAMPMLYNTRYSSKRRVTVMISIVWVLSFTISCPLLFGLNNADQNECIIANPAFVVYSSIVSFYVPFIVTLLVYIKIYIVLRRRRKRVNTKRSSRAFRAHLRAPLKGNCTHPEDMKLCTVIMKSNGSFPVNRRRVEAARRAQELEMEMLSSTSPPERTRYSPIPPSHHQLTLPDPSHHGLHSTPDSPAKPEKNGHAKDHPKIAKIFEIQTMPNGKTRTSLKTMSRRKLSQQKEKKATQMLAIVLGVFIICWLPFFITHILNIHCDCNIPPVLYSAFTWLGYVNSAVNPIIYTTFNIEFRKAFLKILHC
The target of another assay is D(1A) dopamine receptor (Homo sapiens, UniProt P21728). Nature of the assay: Binding affinity to dopamine 1 receptor (unknown origin).
Chain of D(1A) dopamine receptor (P21728 whole entry): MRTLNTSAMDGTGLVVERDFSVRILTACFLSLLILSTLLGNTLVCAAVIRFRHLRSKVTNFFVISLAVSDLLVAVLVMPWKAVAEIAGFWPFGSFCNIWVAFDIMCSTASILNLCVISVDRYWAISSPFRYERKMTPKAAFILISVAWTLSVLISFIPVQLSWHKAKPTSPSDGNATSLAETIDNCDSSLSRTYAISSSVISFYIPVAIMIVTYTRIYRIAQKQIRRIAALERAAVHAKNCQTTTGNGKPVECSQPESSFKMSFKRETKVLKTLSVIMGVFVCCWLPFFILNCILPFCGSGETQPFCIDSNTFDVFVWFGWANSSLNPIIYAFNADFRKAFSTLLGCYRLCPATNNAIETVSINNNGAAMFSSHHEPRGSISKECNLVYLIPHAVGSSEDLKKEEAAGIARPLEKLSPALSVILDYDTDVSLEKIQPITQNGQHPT
The nature of assay [5]: Binding affinity to benzodiazepine receptor in rat brain. It counts as tissue-based.
Assay [6] has as its target Alpha-2C adrenergic receptor (Homo sapiens, UniProt P18825). Nature of the assay: Binding affinity to adrenergic alpha2C receptor (unknown origin).
Assay [7] addresses Alpha-2B adrenergic receptor (Homo sapiens, UniProt P18089). The assay can be described thus: Binding affinity to adrenergic alpha2B receptor (unknown origin).
The target of assay [8] is Alpha-2A adrenergic receptor (Homo sapiens, UniProt P08913). Nature of the assay: Binding affinity to adrenergic alpha2A receptor (unknown origin).
Chain of Alpha-2A adrenergic receptor (P08913 whole entry): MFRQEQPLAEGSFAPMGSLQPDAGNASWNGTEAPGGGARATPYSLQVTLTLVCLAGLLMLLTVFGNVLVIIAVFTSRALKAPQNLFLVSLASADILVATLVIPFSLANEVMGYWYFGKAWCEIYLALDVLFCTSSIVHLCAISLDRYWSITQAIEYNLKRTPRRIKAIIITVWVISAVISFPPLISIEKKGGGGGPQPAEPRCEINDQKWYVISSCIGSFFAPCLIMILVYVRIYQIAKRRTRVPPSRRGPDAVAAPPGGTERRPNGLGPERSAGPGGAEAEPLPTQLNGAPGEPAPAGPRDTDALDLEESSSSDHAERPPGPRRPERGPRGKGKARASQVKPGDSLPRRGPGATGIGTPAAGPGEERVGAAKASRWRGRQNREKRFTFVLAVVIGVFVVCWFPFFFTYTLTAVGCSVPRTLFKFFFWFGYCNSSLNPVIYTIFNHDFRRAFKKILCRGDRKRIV
Assay [9] deals with Alpha-1D adrenergic receptor (Homo sapiens, UniProt P25100). Nature of the assay: Binding affinity to adrenergic alpha1D receptor (unknown origin).
Chain of Alpha-1D adrenergic receptor (P25100 whole entry): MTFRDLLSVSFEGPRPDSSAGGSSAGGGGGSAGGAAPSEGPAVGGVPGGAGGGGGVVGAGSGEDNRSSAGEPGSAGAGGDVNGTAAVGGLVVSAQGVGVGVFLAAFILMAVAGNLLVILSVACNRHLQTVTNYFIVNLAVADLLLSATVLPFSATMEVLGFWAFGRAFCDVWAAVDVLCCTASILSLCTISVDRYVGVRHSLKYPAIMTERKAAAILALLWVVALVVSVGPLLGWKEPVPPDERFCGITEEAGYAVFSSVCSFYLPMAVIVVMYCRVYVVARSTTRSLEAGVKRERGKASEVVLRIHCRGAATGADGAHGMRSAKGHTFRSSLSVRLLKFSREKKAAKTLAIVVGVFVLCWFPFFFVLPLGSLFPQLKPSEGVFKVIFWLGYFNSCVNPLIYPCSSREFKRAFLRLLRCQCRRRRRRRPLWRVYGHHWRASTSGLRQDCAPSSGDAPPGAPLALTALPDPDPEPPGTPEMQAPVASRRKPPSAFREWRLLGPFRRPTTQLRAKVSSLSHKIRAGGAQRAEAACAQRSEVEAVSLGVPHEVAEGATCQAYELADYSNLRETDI
The target in assay [10] is Alpha-1B adrenergic receptor (Homo sapiens, UniProt P35368). Nature of the assay: Binding affinity to adrenergic alpha1B receptor (unknown origin).
Chain of Alpha-1B adrenergic receptor (P35368 whole entry): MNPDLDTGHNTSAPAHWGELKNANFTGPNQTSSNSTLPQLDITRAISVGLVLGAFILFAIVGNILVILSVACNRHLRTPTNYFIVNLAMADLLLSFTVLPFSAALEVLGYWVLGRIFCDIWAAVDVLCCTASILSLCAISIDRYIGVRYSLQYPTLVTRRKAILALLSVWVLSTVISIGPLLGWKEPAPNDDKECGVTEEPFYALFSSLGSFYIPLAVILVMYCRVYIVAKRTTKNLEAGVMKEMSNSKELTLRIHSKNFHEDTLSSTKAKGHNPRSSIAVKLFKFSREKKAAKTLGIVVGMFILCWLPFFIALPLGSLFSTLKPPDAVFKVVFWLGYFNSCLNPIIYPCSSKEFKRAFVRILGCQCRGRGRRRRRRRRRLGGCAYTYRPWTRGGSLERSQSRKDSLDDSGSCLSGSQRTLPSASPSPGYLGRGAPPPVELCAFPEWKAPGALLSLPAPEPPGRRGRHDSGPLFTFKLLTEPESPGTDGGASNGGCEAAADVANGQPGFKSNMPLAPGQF
Assay [11] addresses Alpha-1A adrenergic receptor (Homo sapiens, UniProt P35348). The assay can be described thus: Binding affinity to adrenergic alpha1A receptor (unknown origin).
For assay [12], the target named is 5-hydroxytryptamine receptor 7 (Homo sapiens, UniProt P34969). Nature of the assay: Binding affinity to 5HT7 receptor (unknown origin).
For assay [13], the target named is 5-hydroxytryptamine receptor 5A (Homo sapiens, UniProt P47898). Nature of the assay: Binding affinity to 5HT5A receptor (unknown origin).
Chain of 5-hydroxytryptamine receptor 5A (P47898 whole entry): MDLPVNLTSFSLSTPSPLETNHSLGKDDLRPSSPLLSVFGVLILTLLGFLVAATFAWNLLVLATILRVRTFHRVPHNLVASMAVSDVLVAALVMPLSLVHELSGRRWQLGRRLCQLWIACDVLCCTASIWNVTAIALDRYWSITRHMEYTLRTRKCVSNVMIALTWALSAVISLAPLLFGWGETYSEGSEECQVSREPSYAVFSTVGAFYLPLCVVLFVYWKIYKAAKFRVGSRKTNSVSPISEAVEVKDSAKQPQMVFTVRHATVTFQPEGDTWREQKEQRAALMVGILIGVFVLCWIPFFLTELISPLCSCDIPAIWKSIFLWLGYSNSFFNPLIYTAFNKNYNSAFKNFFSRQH
Assay [14] addresses 5-hydroxytryptamine receptor 2B (Homo sapiens, UniProt P41595). The assay can be described thus: Binding affinity to 5HT2B receptor (unknown origin).
In assay [15] the target is 5-hydroxytryptamine receptor 2A (Homo sapiens, UniProt P28223). The assay can be described thus: Binding affinity to 5HT2A receptor (unknown origin).
The target in assay [16] is 5-hydroxytryptamine receptor 1B (Homo sapiens, UniProt P28222). The assay can be described thus: Binding affinity to 5HT1B receptor (unknown origin).
Assay [17] addresses 5-hydroxytryptamine receptor 1D (Homo sapiens, UniProt P28221). Nature of the assay: Binding affinity to 5HT1D receptor (unknown origin).
Assay [18] deals with T1, 5-hydroxytryptamine receptor 1A. Nature of the assay: Binding affinity to 5HT1A receptor (unknown origin).

Chain of Alpha-1A adrenergic receptor (P35348 whole entry): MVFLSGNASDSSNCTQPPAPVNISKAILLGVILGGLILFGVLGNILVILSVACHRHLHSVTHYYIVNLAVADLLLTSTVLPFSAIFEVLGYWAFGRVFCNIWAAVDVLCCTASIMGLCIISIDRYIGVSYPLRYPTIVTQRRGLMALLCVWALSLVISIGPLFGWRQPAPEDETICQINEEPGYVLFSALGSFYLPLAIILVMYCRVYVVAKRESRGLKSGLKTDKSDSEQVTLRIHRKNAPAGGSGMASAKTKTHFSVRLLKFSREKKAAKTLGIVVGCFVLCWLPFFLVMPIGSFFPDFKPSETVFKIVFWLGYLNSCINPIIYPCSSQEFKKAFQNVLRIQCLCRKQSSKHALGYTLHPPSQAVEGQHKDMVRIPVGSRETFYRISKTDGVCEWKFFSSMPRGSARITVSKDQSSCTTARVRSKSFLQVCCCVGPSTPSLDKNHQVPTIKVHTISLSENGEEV
Chain of Alpha-2C adrenergic receptor (P18825 whole entry): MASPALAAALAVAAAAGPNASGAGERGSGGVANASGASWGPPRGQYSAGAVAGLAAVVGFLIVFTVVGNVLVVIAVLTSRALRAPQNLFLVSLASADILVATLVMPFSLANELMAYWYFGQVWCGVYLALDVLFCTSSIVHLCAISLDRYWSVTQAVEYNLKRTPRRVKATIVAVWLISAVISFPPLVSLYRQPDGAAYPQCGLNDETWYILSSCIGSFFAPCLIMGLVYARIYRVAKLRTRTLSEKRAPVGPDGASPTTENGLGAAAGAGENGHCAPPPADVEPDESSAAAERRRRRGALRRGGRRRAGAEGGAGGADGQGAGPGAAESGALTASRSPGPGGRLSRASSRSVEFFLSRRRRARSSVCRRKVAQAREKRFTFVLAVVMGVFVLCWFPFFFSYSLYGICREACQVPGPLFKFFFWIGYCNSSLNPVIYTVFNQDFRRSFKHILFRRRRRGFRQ
Chain of 5-hydroxytryptamine receptor 1D (P28221 whole entry): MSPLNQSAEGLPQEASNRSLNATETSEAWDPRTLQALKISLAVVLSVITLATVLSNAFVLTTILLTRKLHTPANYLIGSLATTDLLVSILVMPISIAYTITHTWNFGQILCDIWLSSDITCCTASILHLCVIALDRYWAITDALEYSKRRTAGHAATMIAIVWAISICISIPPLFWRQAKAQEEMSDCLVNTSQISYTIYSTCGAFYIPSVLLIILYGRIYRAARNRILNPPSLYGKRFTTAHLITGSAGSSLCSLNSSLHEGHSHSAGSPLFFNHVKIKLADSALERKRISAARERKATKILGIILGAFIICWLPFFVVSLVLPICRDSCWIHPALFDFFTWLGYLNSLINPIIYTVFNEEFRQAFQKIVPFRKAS

Consider `COc1ccccc1N1CCN(CCCCn2ncc(=O)n(C)c2=O)CC1`, for which, in assay [1], the Emax was determined as 80%. In addition, in assay [2], the EC50 was 0.0001 µM. Moreover, the Ki was 0.059 µM in [3]; 0.123 µM in [4]; 2.13 µM at Histamine H2 receptor; 1.03 µM on Histamine H1 receptor; 0.021 µM at D(4) dopamine receptor; over 10 µM at D(3) dopamine receptor. For the same compound, the inhibitory constant (Ki) is over 10 µM at D(2) dopamine receptor; over 10 µM at D(1A) dopamine receptor; over 10 µM in assay [5]; 0.015 µM in assay [6]; 0.238 µM in [7]; 0.096 µM in [8]. In addition, the Ki was over 10 µM in assay [9]; over 10 µM in assay [10]; 0.00675 µM in assay [11]; 0.0129 µM in assay [12]; over 10 µM in assay [13]; 0.0736 µM in assay [14]. Besides, the inhibition constant (Ki) in [15] is 4.98 µM; in [16], 0.643 µM; in assay [17], 0.0883 µM; in assay [18], 0.00015 µM.

In general, Emax refers to the greatest response seen or fitted, relative to the assay's reference. In general, EC50 refers to the concentration that produces a half-maximal response. In general, Ki refers to a dissociation constant, usually derived from enzyme kinetics or from competition with a known ligand. A higher Ki goes with weaker binding.
